Reference: ChEMBL document CHEMBL3885861, “Open TG-GATES”

Species: Rattus norvegicus
Assay: Open TG-GATES - Regimen: Daily Repeat
Format: toxicity, organism-based, Sprague-Dawley
Parameters: regimen Daily Repeat, gender Male, age 6 weeks
Details: in vivo, po, route gavage; for TP / gamma-GTP / ALP / ALT / AST / BUN / CRE / DBIL / GLC / IP / K / LDH / Na / PL / RALB / TBIL / TC / TG: tissue Plasma; for APTT / Bas / Eos / Fbg / Hb / Ht / Lym / MCH / MCHC / MCV / Mono / Neu / PT / Plat / RBC / Ret / WBC: tissue Blood; for KIDNEY_L / KIDNEY_R / KIDNEY_TOTAL: tissue Kidney; for LIVER: tissue Liver
[1] = 45 mg/kg, […], dose level Low, time 28 day
[2] = 150 mg/kg, 72 h, dose level Middle, time 3 day
[3] = 150 mg/kg, […], dose level Middle, time 7 day
[4] = 150 mg/kg, […], dose level Middle, time 14 day
[5] = 150 mg/kg, […], dose level Middle, time 28 day

CC(CCc1ccccc1)NCC(O)c1ccc(O)c(C(N)=O)c1 (centres undefined) [LABETALOL]
TP [1]: 6.4 g/dL
gamma-GTP [1]: 1 IU/L
TERMINAL_BW [2]: 253.6 g
APTT [2]: 16.1 s
Bas [2]: 0.2%
Eos [2]: 0.8%
Fbg [2]: 278 mg/dL
Hb [2]: 13.8 g/dL
Ht [2]: 40.7%
Lym [2]: 75%
MCH [2]: 21.7 pg
MCHC [2]: 33.9%
MCV [2]: 64 fL
Mono [2]: 2.6%
Neu [2]: 21.2%
PT [2]: 12.9 s
Plat [2]: 117.8 x10_4/uL
RBC [2]: 636.6 x10_4/ul
Ret [2]: 7.2%
WBC [2]: 104.5 x10_2/uL
KIDNEY_L [2]: 1 g
KIDNEY_R [2]: 1 g
KIDNEY_TOTAL [2]: 2 g
LIVER [2]: 11.7 g
ALP [2]: 2122.4 IU/L
ALT [2]: 47 IU/L
AST [2]: 76.8 IU/L
BUN [2]: 16.6 mg/dL
CRE [2]: 0.2 mg/dL
DBIL [2]: 0.018 mg/dL
GLC [2]: 180 mg/dL
IP [2]: 7.8 mg/dL
K [2]: 4 meq/L
LDH [2]: 65.6 IU/L
Na [2]: 145 meq/L
PL [2]: 155.4 mg/dL
RALB [2]: 2.7 g/dL
TBIL [2]: 0.028 mg/dL
TC [2]: 84.8 mg/dL
TG [2]: 120.6 mg/dL
TP [2]: 5.9 g/dL
gamma-GTP [2]: 1 IU/L
TERMINAL_BW [3]: 288.5 g
TERMINAL_BW [4]: 339.7 g
TERMINAL_BW [5]: 424.9 g
APTT [3]: 17.3 s
Bas [3]: 0%
Eos [3]: 1%
Fbg [3]: 310.4 mg/dL
Hb [3]: 14.8 g/dL
Ht [3]: 42.8%
Lym [3]: 73.4%
MCH [3]: 21.3 pg
MCHC [3]: 34.5%
MCV [3]: 61.9 fL
Mono [3]: 2.6%
Neu [3]: 22.2%
PT [3]: 12.9 s
Plat [3]: 110.9 x10_4/uL
RBC [3]: 693.2 x10_4/ul
Ret [3]: 5.2%
WBC [3]: 92.4 x10_2/uL
APTT [4]: 17.1 s
Bas [4]: 0.2%
Eos [4]: 1.2%
Fbg [4]: 300.4 mg/dL
Hb [4]: 14.9 g/dL
Ht [4]: 42.9%
Lym [4]: 71.2%
MCH [4]: 20.6 pg
MCHC [4]: 34.6%
MCV [4]: 59.5 fL
Mono [4]: 2.2%
Neu [4]: 24.8%
PT [4]: 13.1 s
RBC [4]: 721.4 x10_4/ul
Ret [4]: 4.3%
WBC [4]: 99.2 x10_2/uL
APTT [5]: 19 s
Bas [5]: 0.4%
Eos [5]: 1.4%
Fbg [5]: 286.4 mg/dL
Hb [5]: 15.6 g/dL
Ht [5]: 44.3%
Lym [5]: 71.8%
MCH [5]: 19.8 pg
MCHC [5]: 35.2%
MCV [5]: 56.1 fL
Mono [5]: 3%
Neu [5]: 23.2%
PT [5]: 13.5 s
Plat [5]: 96.8 x10_4/uL
RBC [5]: 789.8 x10_4/ul
Ret [5]: 2.1%
WBC [5]: 110.3 x10_2/uL
KIDNEY_L [3]: 1.2 g
KIDNEY_R [3]: 1.2 g
KIDNEY_TOTAL [3]: 2.4 g
KIDNEY_L [4]: 1.2 g
KIDNEY_R [4]: 1.2 g
KIDNEY_TOTAL [4]: 2.4 g
KIDNEY_L [5]: 1.4 g
KIDNEY_R [5]: 1.4 g
KIDNEY_TOTAL [5]: 2.8 g
LIVER [3]: 12.6 g
LIVER [4]: 13.3 g
LIVER [5]: 15.6 g
ALP [3]: 1724.6 IU/L
ALT [3]: 51 IU/L
AST [3]: 76 IU/L
BUN [3]: 14.8 mg/dL
CRE [3]: 0.2 mg/dL
DBIL [3]: 0.02 mg/dL
GLC [3]: 183.2 mg/dL
K [3]: 3.8 meq/L
LDH [3]: 68.4 IU/L
Na [3]: 142.8 meq/L
PL [3]: 150.8 mg/dL
RALB [3]: 2.8 g/dL
TBIL [3]: 0.034 mg/dL
TC [3]: 78 mg/dL
TG [3]: 141.2 mg/dL
TP [3]: 6.1 g/dL
gamma-GTP [3]: 1 IU/L
ALP [4]: 1359.8 IU/L
ALT [4]: 50.6 IU/L
AST [4]: 74.4 IU/L
BUN [4]: 17.2 mg/dL
CRE [4]: 0.2 mg/dL
DBIL [4]: 0.012 mg/dL
GLC [4]: 174.6 mg/dL
IP [4]: 8.6 mg/dL
K [4]: 3.9 meq/L
LDH [4]: 58.6 IU/L
Na [4]: 145.4 meq/L
PL [4]: 148.6 mg/dL
RALB [4]: 2.8 g/dL
TBIL [4]: 0.026 mg/dL
TC [4]: 81.6 mg/dL
TG [4]: 88.8 mg/dL
TP [4]: 6.3 g/dL
gamma-GTP [4]: 1.4 IU/L
ALP [5]: 865.6 IU/L
ALT [5]: 60.2 IU/L
AST [5]: 78.2 IU/L
BUN [5]: 18.4 mg/dL
CRE [5]: 0.3 mg/dL
DBIL [5]: 0.026 mg/dL
GLC [5]: 185.6 mg/dL
IP [5]: 7.3 mg/dL
K [5]: 3.6 meq/L
LDH [5]: 69.4 IU/L
Na [5]: 143.4 meq/L
PL [5]: 132 mg/dL
RALB [5]: 2.8 g/dL
TBIL [5]: 0.038 mg/dL
TC [5]: 74 mg/dL
TG [5]: 113 mg/dL
TP [5]: 6.2 g/dL
